Conditions: Liquid, Twin ebulliometer

CCCCCCC [heptane]
Conditions	vapor or sublimation pressure [kPa]
372.08 K	102.9
374.5 K	110.39
377.68 K	120.89
384.39 K	145.56
389.41 K	166.41
393.58 K	185.5
396.7 K	200.79
401.26 K	224.89
405.44 K	248.92
409.66 K	275.09
413.8 K	302.76
419.17 K	341.76
423.85 K	378.8
428.69 K	420.15
433.81 K	467.65
438.86 K	518.27
443.5 K	568.27
447.95 K	619.76
451.8 K	666.97
456.35 K	726.16
459.78 K	773.29
465.07 K	850.62
469.84 K	925.23
473.39 K	983.9
476.11 K	1030.6
479.57 K	1092.4
483.67 K	1169.4
487.36 K	1242.3
490.81 K	1313.4
494.11 K	1384.2
496.77 K	1443.4
500.01 K	1518.2
503.59 K	1604.1
507.39 K	1699.5
510.95 K	1793
515.27 K	1911.6
518.99 K	2019.1
522.22 K	2116.1
525.53 K	2219.7
528.3 K	2309.8
531.47 K	2416.5
534.57 K	2525.7
537.2 K	2621.8

— the NIST ThermoML archive (doi:10.1021/je049562e)
